The values below come from paper PMC5799255, “Histone H5 is a potent Antimicrobial Agent and a template for novel Antimicrobial Peptides” (Scientific Reports, 2018).

Like-named read-outs stand apart in the source and are kept apart here. Marks after values point to notes of the source that are not given here. Ends that are not written are not given here. Some results are limits rather than exact numbers.

One assay concerns P. aeruginosa biofilms. As to conditions: cited from earlier work. An excerpt: (§1) L. monocytogenes and P. aeruginosa are major human pathogens that cause serious illnesses through foodborne and hospital-acquired infections, respectively. […] Moreover, an estimated 51,000 healthcare-associated infections leading to 440 deaths per year in the United States are caused by P. aeruginosa. Additionally, both pathogens have the ability to form biofilms, which enhances their persistence in unfavourable environ ...

The test system of assay [1] is Listeria monocytogenes (ATCC 19112). As to conditions: preliminary peptide screen, peptide purities 50% to 81.9%, tested 1-64 µg/mL, broth microdilution, mean ± SD, n = 3. How it is done:
(§2) Antimicrobial activity of histone H5 against a variety of Gram-positive and Gram-negative planktonic bacteria was evaluated using a broth microdilution assay.
(§3) The antimicrobial activity of these peptides against Gram-positive and Gram-negative planktonic bacteria was evaluated using broth microdilution assays.
(§4) The bacterial strains tested in this study were Gram-positive bacteria (Bacillus cereus (ATCC 11778), methicillin-sensitive Staphylococcus aureus (ATCC 6538), methicillin-resistant Staphylococcus aureus (ATCC 29247), Listeria monocytogenes (ATCC 19112), Enterococcus faecalis (clinical isolate) and vancomycin-resistant Enterococcus (ATCC 51299)) and Gram-negative bacteria Escherichia coli K12 (ATCC 29425), Escherichia coli (O157:H7), Pseudomonas aeruginosa (ATCC 15442) and Salmonella typhimurium (ATCC 1535)). Bacterial colonies from glycerol stocks were plated on LB agar plates (BHI agar plates for L. monocytogenes) and incubated overnight at 37 °C. Single colonies from these plates were grown in 3 mL of LB broth (BHI broth for L. monocytogenes) overnight at 37 °C and shaken at 250 rpm. […] The bacterial suspension was pelleted at 3,000 × g, 4 °C for 10 minutes and washed with PBS (twice), and then adjusted to 10^5–10^6 CFUs/mL in PBS.
(§5) Supplementary Information
(§6) Broth microdilution assay
(§7) The protocol for this step of the project was based on established methods22. Histone H5 or the peptides were dissolved in sterile water, pH 7.4, serially two-fold diluted and aliquoted in a 1:1 (v/v) ratio with bacteria. Kanamycin or ampicillin served as a positive control for inhibition, and sterile water (pH 7.4) as a negative control for inhibition. The tubes were then incubated for 3 hours at 37°C an d shaken at 200 rpm. Next, 100 µL of each tube and 100µL of LB broth (BHI broth for L. monocytogenes) was plated in wells of a 96-well microplate. The microplate was incubated in the EON microplate reader overnight at 206 oscillations/min and at 37°C. During this period, the EON microplate spectrophotometer and Gen5 data analysis software (BioTek, Winooski, VT, USA) were used to monitor the growth of bacteria by measuring the optical density at 600 nm every 30 minutes for 18 hours. The lowest protein concentration without visible bacterial growth was designated as the minimum inhibitory concentration (MIC). Bacteria (10 µL) from the wells at MIC, MIC x 2 and MIC x 3 concentrations of H5 were plated on LB agar (BHI agar for L. monocytogenes) and incubated at 37°C for 18 hours. The lowest concentration of histone H5 without a single colony was designated as the minimum bactericidal concentration (MBC).
(In broth dilution the organism is exposed to a series of concentrations in liquid medium.)

Assay [2] deals with Pseudomonas aeruginosa (ATCC 15442). As to conditions: preliminary peptide screen, peptide purities 50% to 81.9%, tested 1-64 µg/mL, broth microdilution, mean ± SD, n = 3. As for the experimental part: as §2, §3, §4, §5, §6, §7
The test system of assay [3] is L. monocytogenes biofilms. As to conditions: 6.8 µg/mL, 2 and 4 hours of treatment, cited from earlier work.
Text: as §1

Another assay concerns S. aureus. Also on record: method as in PMID 22723861, PMID 16978580. The note with it: cited from earlier work.
For the next assay, the system named is E. faecalis. Also on record: method as in PMID 22723861, PMID 16978580. As to conditions: cited from earlier work.
For another assay, the system named is E. coli. Also on record: method as in PMID 22723861, PMID 16978580. The note with it: cited from earlier work.
The test system of the next assay is P. aeruginosa. Also on record: method as in PMID 22723861, PMID 16978580. As to conditions: cited from earlier work.

As for “melittin: CAMP tested against P. aeruginosa biofilms in the literature”, the MBEC with P. aeruginosa biofilms was above 640 µg/mL.

As to LL-37, in the assay with P. aeruginosa biofilms, the MBEC is 640 µg/mL and the MBEC/MIC ratio is on record as 5–80.

With “RVKASRRSASHPTYSEMIAAAIRAEKSRGG [H5(16–45)]”, the minimum inhibitory concentration (MIC) (in general, the lowest concentration that inhibits growth of the organism) was “inactive” in assay [1], “NI ^‡ (Non-inhibitory at the highest concentration tested (64 µg/mL))” in assay [1] (listed as H5 (16–45)), “non-inhibitory” in assay [2] and “NI ^‡ (Non-inhibitory at the highest concentration tested (64 µg/mL))” in assay [2] (listed as H5 (16–45)).

In the case of paenibacterin, the entries for the “disruption of established biofilms (in words)” value in assay [3] (biofilms developed statically at 30 °C) and in assay [3] (stronger biofilms developed at 37 °C) were “effective” and “not effective”, respectively.

Take “Human β-defensin-3: a human host defence antimicrobial peptide (GIINTLQKYYCRVRGGRCAVLSCLPKEEQIGKCSTRGRKCCRRKK; ends and bridges not checked; cysteine pairing not given here; UniProt P81534 23-67, looked up)”: the MIC with S. aureus is on record as 12 µg/mL; with E. faecalis, above 512 µg/mL; in the assay on E. coli it was 6 µg/mL; in the assay with P. aeruginosa, 13 µg/mL.

With VLKQTKGVGASGSFRLAKSD [H5(81–100)], the MIC entry was “inactive” in assay [1], “NI ^‡ (Non-inhibitory at the highest concentration tested (64 µg/mL))” in assay [1] (listed as H5 (81–100)), “non-inhibitory” in assay [2] and “NI ^‡ (Non-inhibitory at the highest concentration tested (64 µg/mL))” in assay [2] (listed as H5 (81–100)).

Take magainin II: the MBEC in the assay on P. aeruginosa biofilms is listed as above 640 µg/mL.

As for “EMIAAAIRAEKSRGGSSRQSIQKYIKSHYK [H5(31–60)]”, the MIC entry in assay [1] was “inactive”; in assay [1] (listed as H5 (31–60)) it was “NI ^‡ (Non-inhibitory at the highest concentration tested (64 µg/mL))”; in assay [2], “non-inhibitory”; in assay [2] (listed as H5 (31–60)), “NI ^‡ (Non-inhibitory at the highest concentration tested (64 µg/mL))”.

With EMIAAAIRAEKSRGGSSRQS [H5(31–50)], the MIC entry in assay [1] was “inactive”; in assay [1] (listed as H5 (31–50)) it was “NI ^‡ (Non-inhibitory at the highest concentration tested (64 µg/mL))”; in assay [2], “non-inhibitory”; in assay [2] (listed as H5 (31–50)), “NI ^‡ (Non-inhibitory at the highest concentration tested (64 µg/mL))”.

For the substance LSIRRLLAAGVLKQTKGVGA [H5(71–90)], the MIC is >64^† µg/mL in assay [1] and 26.7 ± 14.1 µg/mL in assay [2].
